Experimental data: patent US6737383B1, “Herbicidal oxadiazolidines” (priority 1999, dated 2004)

Key:
crabgrass = experiment: Test B pre/postemergence crabgrass; type: in vivo, Digitaria sanguinalis
Summary of the method: (§1)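 Herbicidal effect was estimated by eye on a ten-point control scale after plants spent twelve to sixteen days in a greenhouse following soil or foliar treatment. Foliar sprays targeted plants at one to four leaves; all doses were formulated in a non-phytotoxic solvent with surfactant.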

wheat = experiment: Test B pre/postemergence wheat; type: in vivo, Triticum aestivum
Summary of the method: as §1

sugar beet = experiment: Test B pre/postemergence sugar beet; type: in vivo, Beta vulgaris
Summary of the method: as §1

velvetleaf = experiment: Test B pre/postemergence velvetleaf; type: in vivo, Abutilon theophrasti
Summary of the method: as §1

morningglory = experiment: Test B pre/postemergence morningglory; type: in vivo, Ipomoea hederacea
Summary of the method: as §1

corn = experiment: Test B pre/postemergence corn; type: in vivo, Zea mays
Summary of the method: as §1

giant foxtail = experiment: Test B pre/postemergence giant foxtail; type: in vivo, Setaria faberii
Summary of the method: as §1

rape = experiment: Test B pre/postemergence rape; type: in vivo, Brassica napus
Summary of the method: as §1

wild oat = experiment: Test B pre/postemergence wild oat; type: in vivo, Avena fatua
Summary of the method: as §1

cocklebur = experiment: Test B pre/postemergence cocklebur; type: in vivo, Xanthium strumarium
Summary of the method: as §1

surinam grass = experiment: Test B pre/postemergence surinam grass; type: in vivo, Brachiaria decumbens
Summary of the method: as §1

blackgrass = experiment: Test B pre/postemergence blackgrass; type: in vivo, Alopecurus myosuroides
Summary of the method: as §1

bedstraw = experiment: Test B pre/postemergence bedstraw; type: in vivo, Galium aparine
Summary of the method: as §1

purple nutsedge = experiment: Test B pre/postemergence purple nutsedge; type: in vivo, Cyperus rotundus
Summary of the method: as §1

pigweed = experiment: Test B pre/postemergence pigweed; type: in vivo, Amaranthus retroflexus
Summary of the method: as §1

soybean = experiment: Test B pre/postemergence soybean; type: in vivo, Glycine max
Summary of the method: as §1

[1] = Postemergence, Rate 62 g/ha, scale of 0 to 10, 0 is no effect, 10 is complete control
[2] = Postemergence, Rate 125 g/ha, scale 0 to 10, 0 is no effect, 10 is complete control
[3] = Postemergence, Rate 500 g/ha, scale of 0 to 10 where 0 is no effect and 10 is complete control
[4] = Preemergence, Rate 62 g/ha, scale 0 to 10 (0 no effect, 10 complete control)
[5] = Preemergence, Rate 125 g/ha, scale 0 to 10, 0 is no effect, 10 is complete control
[6] = Preemergence, Rate 500 g/ha, scale of 0 to 10 where 0 is no effect and 10 is complete control
[7] = Rate 250 g/ha, Postemergence, scale of 0 to 10 where 0 is no effect and 10 is complete control
[8] = Preemergence, Rate 62 g/ha, scale of 0 to 10 where 0 is no effect and 10 is complete control
[9] = Preemergence, Rate 250 g/ha, scale 0 (no effect) to 10 (complete control)
[10] = Rate 500 g/ha, Preemergence, scale 0 to 10 (0 no effect, 10 complete control)

With `CCOCn1c(=O)on(C(=O)N(c2ccccc2)C(C)C)c1=O` [Compound 563] the “Crabgrass plant response rating” value (crabgrass; [1]) was 9, the “Crabgrass plant response rating” value (crabgrass; [2]) was 9 and the “Plant response rating, Crabgrass” value (crabgrass; [3]) was 9. The “Crabgrass plant response rating” value (crabgrass; [4]) was 8, the “Crabgrass plant response rating” value (crabgrass; [5]) was 9 and the “Crabgrass plant response rating (0 to 10 scale)” value (crabgrass; Preemergence, Rate 250 g/ha) was 10. For the same compound, the “Crabgrass plant response rating” value (crabgrass; [6]) was 9, the “Plant response rating, Crabgrass” value (crabgrass; [7]) was 8 and the “Wheat plant response rating” value (wheat; [1]) was 0. For the same compound, the “Plant response rating, Wheat” value (wheat; [3]) was 0, the “Wheat plant response rating” value (wheat; [4]) was 3 and the “Wheat plant response rating” value (wheat; [5]) was 8. For the same compound, the “Wheat plant response rating (0 to 10 scale)” value (wheat; Preemergence, Rate 250 g/ha) was 9, the “Wheat plant response rating” value (wheat; [6]) was 10 and the “Plant response rating, Wheat” value (wheat; [7]) was 0. The “Sugarbeets plant response rating” value (sugar beet; [1]) was 0, the “Plant response rating, Sugarbeets” value (sugar beet; [3]) was 0 and the “Sugarbeets plant response rating” value (sugar beet; [4]) was 2. The “Sugarbeets plant response rating” value (sugar beet; [5]) was 3, the “Sugarbeets plant response rating (0 to 10 scale)” value (sugar beet; Preemergence, Rate 250 g/ha) was 3 and the “Sugarbeets plant response rating” value (sugar beet; [6]) was 4. The “Plant response rating, Sugarbeets” value (sugar beet; [7]) was 0, the “Velvetleaf plant response rating” value (velvetleaf; [1]) was 0 and the “Plant response rating, Velvetleaf” value (velvetleaf; [3]) was 4. For the same compound, the “Velvetleaf plant response rating” value (velvetleaf; [4]) was 3, the “Velvetleaf plant response rating” value (velvetleaf; [5]) was 3 and the “Velvetleaf plant response rating (0 to 10 scale)” value (velvetleaf; Preemergence, Rate 250 g/ha) was 6. For the same compound, the “Velvetleaf plant response rating” value (velvetleaf; [6]) was 7, the “Plant response rating, Velvetleaf” value (velvetleaf; [7]) was 2 and the “Morningglory plant response rating” value (morningglory; [1]) was 4. For the same compound, the “Morningglory plant response rating” value (morningglory; [2]) was 6, the “Plant response rating, Morningglory” value (morningglory; [3]) was 10 and the “Morningglory plant response rating” value (morningglory; [4]) was 0. For the same compound, the “Morningglory plant response rating” value (morningglory; [5]) was 0, the “Morningglory plant response rating (0 to 10 scale)” value (morningglory; Preemergence, Rate 250 g/ha) was 0 and the “Morningglory plant response rating” value (morningglory; [6]) was 3. For the same compound, the “Plant response rating, Morningglory” value (morningglory; [7]) was 10, the “Corn plant response rating” value (corn; [1]) was 0 and the “Corn plant response rating” value (corn; [2]) was 0. For the same compound, the “Plant response rating, Corn” value (corn; [3]) was 8, the “Corn plant response rating” value (corn; [4]) was 0 and the “Corn plant response rating” value (corn; [5]) was 0. For the same compound, the “Corn plant response rating (0 to 10 scale)” value (corn; Preemergence, Rate 250 g/ha) was 4, the “Corn plant response rating” value (corn; [6]) was 9 and the “Plant response rating, Corn” value (corn; [7]) was 4. The “Giant foxtail plant response rating” value (giant foxtail; [1]) was 6, the “Giant foxtail plant response rating” value (giant foxtail; [2]) was 8 and the “Plant response rating, Giant foxtail” value (giant foxtail; [3]) was 9. The “Giant foxtail plant response rating” value (giant foxtail; [4]) was 9, the “Giant foxtail plant response rating” value (giant foxtail; [5]) was 9 and the “Giant foxtail plant response rating (0 to 10 scale)” value (giant foxtail; Preemergence, Rate 250 g/ha) was 10. The “Giant foxtail plant response rating” value (giant foxtail; [6]) was 10, the “Plant response rating, Giant foxtail” value (giant foxtail; [7]) was 8 and the “Rape plant response rating” value (rape; [1]) was 0. For the same compound, the “Rape plant response rating” value (rape; [2]) was 0, the “Plant response rating, Rape” value (rape; [3]) was 5 and the “Rape plant response rating” value (rape; [4]) was 0. For the same compound, the “Rape plant response rating” value (rape; [5]) was 4, the “Rape plant response rating (0 to 10 scale)” value (rape; Preemergence, Rate 250 g/ha) was 9 and the “Rape plant response rating” value (rape; [6]) was 9. For the same compound, the “Plant response rating, Rape” value (rape; [7]) was 5, the “Wild oats plant response rating” value (wild oat; [1]) was 0 and the “Plant response rating, Wild oats” value (wild oat; [3]) was 0. For the same compound, the “Wild oats plant response rating” value (wild oat; [4]) was 2, the “Wild oats plant response rating” value (wild oat; [5]) was 9 and the “Wild oats plant response rating (0 to 10 scale)” value (wild oat; Preemergence, Rate 250 g/ha) was 9. For the same compound, the “Wild oats plant response rating” value (wild oat; [6]) was 10, the “Plant response rating, Wild oats” value (wild oat; [7]) was 0 and the “Cocklebur plant response rating” value (cocklebur; [1]) was 0. For the same compound, the “Cocklebur plant response rating” value (cocklebur; [2]) was 0, the “Plant response rating, Cocklebur” value (cocklebur; [3]) was 2 and the “Cocklebur plant response rating” value (cocklebur; [4]) was 0. For the same compound, the “Cocklebur plant response rating” value (cocklebur; [5]) was 0, the “Cocklebur plant response rating (0 to 10 scale)” value (cocklebur; Preemergence, Rate 250 g/ha) was 0 and the “Cocklebur plant response rating” value (cocklebur; [6]) was 2. The “Plant response rating, Cocklebur” value (cocklebur; [7]) was 0, the “B. signalgrass plant response rating” value (surinam grass; [1]) was 0 and the “B. signalgrass plant response rating” value (surinam grass; [2]) was 4. The “Plant response rating, B. signalgrass” value (surinam grass; [3]) was 7, the “B. signalgrass plant response rating” value (surinam grass; [4]) was 3 and the “B. signalgrass plant response rating” value (surinam grass; [5]) was 9. For the same compound, the “B. signalgrass plant response rating (0 to 10 scale, 0 is no effect, 10 is complete control)” value (surinam grass; Preemergence, Rate 250 g/ha) was 9, the “B. signalgrass plant response rating” value (surinam grass; [6]) was 10 and the “Plant response rating, B. signalgrass” value (surinam grass; [7]) was 5. The “Blackgrass plant response rating” value (blackgrass; [1]) was 0, the “Blackgrass plant response rating” value (blackgrass; [2]) was 0 and the “Plant response rating, Blackgrass” value (blackgrass; [3]) was 4. For the same compound, the “Blackgrass plant response rating” value (blackgrass; [4]) was 2, the “Blackgrass plant response rating” value (blackgrass; [5]) was 8 and the “Blackgrass plant response rating (0 to 10 scale)” value (blackgrass; Preemergence, Rate 250 g/ha) was 9. The “Blackgrass plant response rating” value (blackgrass; [6]) was 9, the “Plant response rating, Blackgrass” value (blackgrass; [7]) was 4 and the “Bedstraw plant response rating” value (bedstraw; [1]) was 0. For the same compound, the “Bedstraw plant response rating” value (bedstraw; [2]) was 0, the “Plant response rating, Bedstraw” value (bedstraw; [3]) was 0 and the “Bedstraw plant response rating” value (bedstraw; [4]) was 0. For the same compound, the “Bedstraw plant response rating” value (bedstraw; [5]) was 0, the “Bedstraw plant response rating (0 to 10 scale)” value (bedstraw; Preemergence, Rate 250 g/ha) was 0 and the “Bedstraw plant response rating” value (bedstraw; [6]) was 0. For the same compound, the “Nutsedge plant response rating” value (purple nutsedge; [1]) was 0, the “Nutsedge plant response rating” value (purple nutsedge; [2]) was 0 and the “Nutsedge plant response rating” value (purple nutsedge; [4]) was 0. For the same compound, the “Nutsedge plant response rating” value (purple nutsedge; [5]) was 0, the “Nutsedge plant response rating (0 to 10 scale)” value (purple nutsedge; Preemergence, Rate 250 g/ha) was 0 and the “Plant response rating, Nutsedge” value (purple nutsedge; [7]) was 0. For the same compound, the “Redroot pigweed plant response rating” value (pigweed; [1]) was 0, the “Plant response rating, Redroot pigweed” value (pigweed; [3]) was 5 and the “Redroot pigweed plant response rating” value (pigweed; [4]) was 4. For the same compound, the “Redroot pigweed plant response rating” value (pigweed; [5]) was 9, the “Redroot pigweed plant response rating (0 to 10 scale)” value (pigweed; Preemergence, Rate 250 g/ha) was 9 and the “Redroot pigweed plant response rating” value (pigweed; [6]) was 9. For the same compound, the “Plant response rating, Redroot pigweed” value (pigweed; [7]) was 5, the “Soybean plant response rating” value (soybean; [1]) was 5 and the “Plant response rating, Soybean” value (soybean; [3]) was 5. For the same compound, the “Soybean plant response rating” value (soybean; [4]) was 0, the “Soybean plant response rating” value (soybean; [5]) was 0 and the “Soybean plant response rating (0 to 10 scale)” value (soybean; Preemergence, Rate 250 g/ha) was 3. The “Soybean plant response rating” value (soybean; [6]) was 6 and the “Plant response rating, Soybean” value (soybean; [7]) was 3.

In the case of `CC(C)N(C(=O)n1oc(=O)n(C(C)C2CCC2)c1=O)c1ccccc1` (centres unmarked) [Compound 717], the “Crabgrass plant response rating” value (crabgrass; [8]) was 10, the “Crabgrass plant response rating” value (crabgrass; [9]) was 10 and the “Crabgrass plant response rating” value (crabgrass; [10]) was 10. For the same compound, the “Wheat plant response rating” value (wheat; [8]) was 0, the “Wheat plant response rating” value (wheat; [9]) was 0 and the “Wheat plant response rating” value (wheat; [10]) was 0. The “Sugarbeets plant response rating” value (sugar beet; [8]) was 0, the “Sugarbeets plant response rating” value (sugar beet; [9]) was 2 and the “Sugarbeets plant response rating” value (sugar beet; [10]) was 3. The “Velvetleaf plant response rating” value (velvetleaf; [8]) was 0, the “Velvetleaf plant response rating” value (velvetleaf; [9]) was 0 and the “Velvetleaf plant response rating” value (velvetleaf; [10]) was 0. For the same compound, the “Morningglory plant response rating” value (morningglory; [8]) was 0, the “Morningglory plant response rating” value (morningglory; [9]) was 0 and the “Morningglory plant response rating” value (morningglory; [10]) was 0. The “Corn plant response rating” value (corn; [8]) was 0, the “Corn plant response rating” value (corn; [9]) was 3 and the “Corn plant response rating” value (corn; [10]) was 9. For the same compound, the “Giant foxtail plant response rating” value (giant foxtail; [8]) was 10, the “Giant foxtail plant response rating” value (giant foxtail; [9]) was 10 and the “Giant foxtail plant response rating” value (giant foxtail; [10]) was 10. The “Rape plant response rating” value (rape; [8]) was 0, the “Rape plant response rating” value (rape; [9]) was 0 and the “Rape plant response rating” value (rape; [10]) was 4. The “Wild oats plant response rating” value (wild oat; [8]) was 9, the “Wild oats plant response rating” value (wild oat; [9]) was 9 and the “Wild oats plant response rating” value (wild oat; [10]) was 10. The “Cocklebur plant response rating” value (cocklebur; [8]) was 0, the “Cocklebur plant response rating” value (cocklebur; [9]) was 0 and the “Cocklebur plant response rating” value (cocklebur; [10]) was 0. For the same compound, the “B. signalgrass plant response rating” value (surinam grass; [8]) was 4, the “B. signalgrass plant response rating” value (surinam grass; [9]) was 7 and the “B. signalgrass plant response rating” value (surinam grass; [10]) was 7. For the same compound, the “Blackgrass plant response rating” value (blackgrass; [8]) was 9, the “Blackgrass plant response rating” value (blackgrass; [9]) was 10 and the “Blackgrass plant response rating” value (blackgrass; [10]) was 10. The “Bedstraw plant response rating” value (bedstraw; [8]) was 0, the “Bedstraw plant response rating” value (bedstraw; [9]) was 0 and the “Bedstraw plant response rating” value (bedstraw; [10]) was 0. The “Nutsedge plant response rating” value (purple nutsedge; [8]) was 0, the “Nutsedge plant response rating” value (purple nutsedge; [9]) was 0 and the “Nutsedge plant response rating” value (purple nutsedge; [10]) was 0. The “Redroot pigweed plant response rating” value (pigweed; [8]) was 6, the “Redroot pigweed plant response rating” value (pigweed; [9]) was 8 and the “Redroot pigweed plant response rating” value (pigweed; [10]) was 8. For the same compound, the “Soybean plant response rating” value (soybean; [8]) was 0, the “Soybean plant response rating” value (soybean; [9]) was 0 and the “Soybean plant response rating” value (soybean; [10]) was 0.
